Results published in ChEMBL document CHEMBL4507285, “Data for DCP probe MRL-SYKi” (2021).
Activity calls are given as the source filed them. The rule behind the calls is not given here.

What was measured:
[1] = biological target: Mitogen-activated protein kinase kinase kinase kinase 5 (Homo sapiens) (UniProt Q9Y4K4); settings: Compound concentration 100.0 nM
[2] = biological target: Phosphatidylinositol 4,5-bisphosphate 3-kinase catalytic subunit delta isoform (Homo sapiens) (UniProt O00329); settings: Compound concentration 100.0 nM
[3] = biological target: Ephrin type-B receptor 1 (Homo sapiens) (UniProt P54762); settings: Compound concentration 100.0 nM
[4] = biological target: Mast/stem cell growth factor receptor Kit (Homo sapiens) (UniProt P10721); settings: Compound concentration 100.0 nM
Mast cell = assay: Human Mast Cell degranulation; type: cell-based
[5] = biological target: Ephrin type-A receptor 7 (Homo sapiens) (UniProt Q15375); settings: Compound concentration 100.0 nM
[6] = biological target: Serine/threonine-protein kinase Nek7 (Homo sapiens) (UniProt Q8TDX7); settings: Compound concentration 100.0 nM
[7] = biological target: Tyrosine-protein kinase Mer (Homo sapiens) (UniProt Q12866); settings: Compound concentration 100.0 nM
[8] = biological target: GABA-A receptor; anion channel (Rattus norvegicus) (UniProt O09028+P15431+P18506+P18508+P19969+P20236+P23574+P23576+P28471+P28473+P30191+P62813+P63079+P63138+Q91ZM7+Q9ES14); settings: Compound concentration 10.0 uM
[9] = biological target: NUAK family SNF1-like kinase 2 (Homo sapiens) (UniProt Q9H093); settings: Compound concentration 100.0 nM
[10] = biological target: Serine/threonine-protein kinase N1 (Homo sapiens) (UniProt Q16512); settings: Compound concentration 100.0 nM
[11] = biological target: Cyclin-dependent kinase 5 (Homo sapiens) (UniProt Q00535); settings: Compound concentration 100.0 nM
[12] = test system: Receptor-type tyrosine-protein kinase FLT3 (Homo sapiens), P36888 [UNDEFINED MUTATION]; settings: Compound concentration 100.0 nM
[13] = biological target: Mitogen-activated protein kinase kinase kinase 6 (Homo sapiens) (UniProt O95382); settings: Compound concentration 100.0 nM
[14] = biological target: Peripheral plasma membrane protein CASK (Homo sapiens) (UniProt O14936); settings: Compound concentration 100.0 nM
[15] = biological target: Serine/threonine-protein kinase TAO1 (Homo sapiens) (UniProt Q7L7X3); settings: Compound concentration 100.0 nM
[16] = biological target: Tyrosine-protein kinase FRK (Homo sapiens) (UniProt P42685); settings: Compound concentration 100.0 nM
[17] = test system: Phosphatidylinositol 4,5-bisphosphate 3-kinase catalytic subunit alpha isoform (Homo sapiens), P42336 [I800L]; settings: Compound concentration 100.0 nM
[18] = biological target: Focal adhesion kinase 1 (Homo sapiens) (UniProt Q05397); settings: Compound concentration 100.0 nM
[19] = biological target: Platelet-derived growth factor receptor beta (Homo sapiens) (UniProt P09619); settings: Compound concentration 100.0 nM
[20] = biological target: Sodium-dependent serotonin transporter (Homo sapiens) (UniProt P31645); settings: Compound concentration 10.0 uM
[21] = test system: Epidermal growth factor receptor (Homo sapiens), P00533 [UNDEFINED MUTATION]; settings: Compound concentration 100.0 nM
[22] = test system: Epidermal growth factor receptor (Homo sapiens), P00533 [L858R,T790M]; settings: Compound concentration 100.0 nM
[23] = biological target: Serine/threonine-protein kinase 25 (Homo sapiens) (UniProt O00506); settings: Compound concentration 100.0 nM
[24] = biological target: Serine/threonine-protein kinase WNK4 (Homo sapiens) (UniProt Q96J92); settings: Compound concentration 100.0 nM
[25] = biological target: Cyclin-dependent kinase 11A (Homo sapiens) (UniProt Q9UQ88); settings: Compound concentration 100.0 nM
[26] = biological target: Calcium/calmodulin-dependent protein kinase type IV (Homo sapiens) (UniProt Q16566); settings: Compound concentration 100.0 nM
[27] = biological target: Ephrin type-A receptor 6 (Homo sapiens) (UniProt Q9UF33); settings: Compound concentration 100.0 nM
[28] = biological target: Serine/threonine-protein kinase Nek1 (Homo sapiens) (UniProt Q96PY6); settings: Compound concentration 100.0 nM
[29] = biological target: Dual specificity testis-specific protein kinase 1 (Homo sapiens) (UniProt Q15569); settings: Compound concentration 100.0 nM
[30] = biological target: Activin receptor type-1-like (Homo sapiens) (UniProt P37023); settings: Compound concentration 100.0 nM
[31] = biological target: STE20/SPS1-related proline-alanine-rich protein kinase (Homo sapiens) (UniProt Q9UEW8); settings: Compound concentration 100.0 nM
[32] = biological target: MAP kinase-interacting serine/threonine-protein kinase 2 (Homo sapiens) (UniProt Q9HBH9); settings: Compound concentration 100.0 nM
[33] = biological target: Mitogen-activated protein kinase kinase kinase kinase 4 (Homo sapiens) (UniProt O95819); settings: Compound concentration 100.0 nM
[34] = biological target: Rhodopsin kinase GRK1 (Homo sapiens) (UniProt Q15835); settings: Compound concentration 100.0 nM
[35] = biological target: Tyrosine-protein kinase Yes (Homo sapiens) (UniProt P07947); settings: Compound concentration 100.0 nM
[36] = biological target: Ribosomal protein S6 kinase alpha-6 (Homo sapiens) (UniProt Q9UK32); settings: Compound concentration 100.0 nM
[37] = biological target: Bone morphogenetic protein receptor type-1A (Homo sapiens) (UniProt P36894); settings: Compound concentration 100.0 nM
[38] = biological target: Serine/threonine-protein kinase TAO3 (Homo sapiens) (UniProt Q9H2K8); settings: Compound concentration 100.0 nM
[39] = biological target: Serine/threonine-protein kinase ICK (Homo sapiens) (UniProt Q9UPZ9); settings: Compound concentration 100.0 nM
[40] = biological target: Ribosomal protein S6 kinase alpha-4 (Homo sapiens) (UniProt O75676); settings: Compound concentration 100.0 nM
[41] = biological target: Mitogen-activated protein kinase 11 (Homo sapiens) (UniProt Q15759); settings: Compound concentration 100.0 nM
[42] = biological target: Serine/threonine-protein kinase 32B (Homo sapiens) (UniProt Q9NY57); settings: Compound concentration 100.0 nM
[43] = biological target: Mitogen-activated protein kinase 3 (Homo sapiens) (UniProt P27361); settings: Compound concentration 100.0 nM
Chain of Mitogen-activated protein kinase 3 (Homo sapiens) (P27361 whole entry): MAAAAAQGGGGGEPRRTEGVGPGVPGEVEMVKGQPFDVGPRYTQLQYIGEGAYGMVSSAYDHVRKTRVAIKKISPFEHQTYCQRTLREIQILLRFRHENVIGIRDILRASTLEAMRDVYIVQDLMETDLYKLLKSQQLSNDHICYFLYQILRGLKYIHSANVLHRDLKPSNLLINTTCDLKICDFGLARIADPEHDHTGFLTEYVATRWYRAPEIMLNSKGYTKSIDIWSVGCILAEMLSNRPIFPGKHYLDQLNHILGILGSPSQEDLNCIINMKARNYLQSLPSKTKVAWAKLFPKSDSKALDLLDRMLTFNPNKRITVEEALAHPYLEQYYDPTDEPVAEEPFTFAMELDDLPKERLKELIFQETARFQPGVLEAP

Chain of Sodium-dependent serotonin transporter (Homo sapiens) (P31645 whole entry, looked up): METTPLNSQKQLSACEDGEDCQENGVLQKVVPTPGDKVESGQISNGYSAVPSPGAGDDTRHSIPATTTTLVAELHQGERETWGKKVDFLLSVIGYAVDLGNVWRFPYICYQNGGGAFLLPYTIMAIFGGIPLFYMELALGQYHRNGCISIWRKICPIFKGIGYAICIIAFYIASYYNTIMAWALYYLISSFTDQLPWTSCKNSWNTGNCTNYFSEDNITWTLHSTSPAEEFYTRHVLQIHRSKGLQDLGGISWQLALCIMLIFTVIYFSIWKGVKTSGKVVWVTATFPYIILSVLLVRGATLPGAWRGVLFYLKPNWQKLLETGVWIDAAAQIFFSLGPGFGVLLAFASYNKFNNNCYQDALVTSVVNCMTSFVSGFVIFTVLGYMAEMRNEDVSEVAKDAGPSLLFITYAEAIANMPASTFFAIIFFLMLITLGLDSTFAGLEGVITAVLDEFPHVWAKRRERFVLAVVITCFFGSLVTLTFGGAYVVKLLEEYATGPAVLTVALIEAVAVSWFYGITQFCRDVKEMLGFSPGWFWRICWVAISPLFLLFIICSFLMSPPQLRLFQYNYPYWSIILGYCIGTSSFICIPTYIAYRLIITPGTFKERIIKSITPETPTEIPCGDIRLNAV
Chain of Activin receptor type-1-like (Homo sapiens) (P37023 whole entry): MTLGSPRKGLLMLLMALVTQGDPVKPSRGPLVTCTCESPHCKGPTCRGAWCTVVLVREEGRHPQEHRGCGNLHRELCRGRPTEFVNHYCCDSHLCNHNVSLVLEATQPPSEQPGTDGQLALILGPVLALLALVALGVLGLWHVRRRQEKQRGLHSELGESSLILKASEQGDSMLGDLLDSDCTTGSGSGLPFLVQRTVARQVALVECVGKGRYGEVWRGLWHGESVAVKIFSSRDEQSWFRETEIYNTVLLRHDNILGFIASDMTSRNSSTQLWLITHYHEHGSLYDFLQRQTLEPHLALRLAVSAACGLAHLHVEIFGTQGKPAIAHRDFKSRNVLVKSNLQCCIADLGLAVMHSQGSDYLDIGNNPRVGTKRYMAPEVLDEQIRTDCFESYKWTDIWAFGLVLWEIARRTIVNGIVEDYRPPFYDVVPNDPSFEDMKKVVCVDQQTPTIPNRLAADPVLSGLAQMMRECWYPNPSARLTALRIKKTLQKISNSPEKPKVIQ
Chain of Serine/threonine-protein kinase 32B (Homo sapiens) (Q9NY57 whole entry): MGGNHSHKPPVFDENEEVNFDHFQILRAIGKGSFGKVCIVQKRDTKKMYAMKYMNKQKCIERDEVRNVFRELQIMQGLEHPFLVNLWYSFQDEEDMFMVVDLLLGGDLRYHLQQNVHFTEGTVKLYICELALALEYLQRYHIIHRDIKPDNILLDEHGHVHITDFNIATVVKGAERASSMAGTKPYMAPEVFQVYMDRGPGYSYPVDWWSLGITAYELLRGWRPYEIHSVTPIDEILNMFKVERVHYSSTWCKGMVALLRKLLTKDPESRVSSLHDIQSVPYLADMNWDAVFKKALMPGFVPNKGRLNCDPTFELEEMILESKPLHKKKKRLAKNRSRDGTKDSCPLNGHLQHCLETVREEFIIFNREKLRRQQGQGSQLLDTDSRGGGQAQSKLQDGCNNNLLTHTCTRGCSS
Chain of Serine/threonine-protein kinase Nek7 (Homo sapiens) (Q8TDX7 whole entry, looked up): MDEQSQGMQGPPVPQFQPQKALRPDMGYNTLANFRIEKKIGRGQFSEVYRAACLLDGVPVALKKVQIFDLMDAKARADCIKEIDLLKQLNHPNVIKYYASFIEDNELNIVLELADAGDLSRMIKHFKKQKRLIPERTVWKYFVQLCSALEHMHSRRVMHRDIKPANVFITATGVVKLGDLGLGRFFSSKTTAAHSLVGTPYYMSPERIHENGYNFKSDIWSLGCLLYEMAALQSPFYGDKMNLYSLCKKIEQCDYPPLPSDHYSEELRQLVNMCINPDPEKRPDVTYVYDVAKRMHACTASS
Chain of NUAK family SNF1-like kinase 2 (Homo sapiens) (Q9H093 whole entry): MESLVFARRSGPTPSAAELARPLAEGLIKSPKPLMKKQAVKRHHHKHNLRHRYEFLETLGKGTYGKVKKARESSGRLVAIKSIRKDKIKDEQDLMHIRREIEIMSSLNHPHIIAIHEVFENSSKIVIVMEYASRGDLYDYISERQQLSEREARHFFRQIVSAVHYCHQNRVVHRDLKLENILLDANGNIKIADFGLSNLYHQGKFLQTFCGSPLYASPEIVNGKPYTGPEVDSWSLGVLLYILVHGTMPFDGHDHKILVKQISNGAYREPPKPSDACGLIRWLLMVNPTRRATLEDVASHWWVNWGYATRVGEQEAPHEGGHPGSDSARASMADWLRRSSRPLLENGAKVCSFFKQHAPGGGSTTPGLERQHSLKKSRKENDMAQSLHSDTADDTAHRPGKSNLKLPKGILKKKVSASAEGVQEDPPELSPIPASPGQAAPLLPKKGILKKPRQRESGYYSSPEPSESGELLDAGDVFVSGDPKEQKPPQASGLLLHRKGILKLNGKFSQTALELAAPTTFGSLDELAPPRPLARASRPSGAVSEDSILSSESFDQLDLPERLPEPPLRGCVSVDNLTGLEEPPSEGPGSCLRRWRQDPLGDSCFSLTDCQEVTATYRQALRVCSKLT
Chain of Rhodopsin kinase GRK1 (Homo sapiens) (Q15835 whole entry): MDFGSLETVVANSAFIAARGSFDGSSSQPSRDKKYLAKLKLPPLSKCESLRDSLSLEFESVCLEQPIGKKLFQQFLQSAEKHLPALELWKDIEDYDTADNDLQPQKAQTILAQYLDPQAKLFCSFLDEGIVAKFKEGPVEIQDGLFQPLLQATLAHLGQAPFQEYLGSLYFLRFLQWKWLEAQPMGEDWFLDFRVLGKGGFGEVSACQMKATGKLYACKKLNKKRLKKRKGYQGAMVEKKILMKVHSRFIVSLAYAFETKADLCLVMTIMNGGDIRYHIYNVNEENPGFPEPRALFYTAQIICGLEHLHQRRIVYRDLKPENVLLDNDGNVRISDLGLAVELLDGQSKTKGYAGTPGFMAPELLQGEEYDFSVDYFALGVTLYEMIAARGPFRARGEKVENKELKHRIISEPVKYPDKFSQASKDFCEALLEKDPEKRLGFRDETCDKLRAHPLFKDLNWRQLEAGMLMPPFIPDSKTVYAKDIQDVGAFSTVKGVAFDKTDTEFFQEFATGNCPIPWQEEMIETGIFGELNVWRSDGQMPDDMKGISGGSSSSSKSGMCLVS
Chain of Serine/threonine-protein kinase TAO1 (Homo sapiens) (Q7L7X3 whole entry): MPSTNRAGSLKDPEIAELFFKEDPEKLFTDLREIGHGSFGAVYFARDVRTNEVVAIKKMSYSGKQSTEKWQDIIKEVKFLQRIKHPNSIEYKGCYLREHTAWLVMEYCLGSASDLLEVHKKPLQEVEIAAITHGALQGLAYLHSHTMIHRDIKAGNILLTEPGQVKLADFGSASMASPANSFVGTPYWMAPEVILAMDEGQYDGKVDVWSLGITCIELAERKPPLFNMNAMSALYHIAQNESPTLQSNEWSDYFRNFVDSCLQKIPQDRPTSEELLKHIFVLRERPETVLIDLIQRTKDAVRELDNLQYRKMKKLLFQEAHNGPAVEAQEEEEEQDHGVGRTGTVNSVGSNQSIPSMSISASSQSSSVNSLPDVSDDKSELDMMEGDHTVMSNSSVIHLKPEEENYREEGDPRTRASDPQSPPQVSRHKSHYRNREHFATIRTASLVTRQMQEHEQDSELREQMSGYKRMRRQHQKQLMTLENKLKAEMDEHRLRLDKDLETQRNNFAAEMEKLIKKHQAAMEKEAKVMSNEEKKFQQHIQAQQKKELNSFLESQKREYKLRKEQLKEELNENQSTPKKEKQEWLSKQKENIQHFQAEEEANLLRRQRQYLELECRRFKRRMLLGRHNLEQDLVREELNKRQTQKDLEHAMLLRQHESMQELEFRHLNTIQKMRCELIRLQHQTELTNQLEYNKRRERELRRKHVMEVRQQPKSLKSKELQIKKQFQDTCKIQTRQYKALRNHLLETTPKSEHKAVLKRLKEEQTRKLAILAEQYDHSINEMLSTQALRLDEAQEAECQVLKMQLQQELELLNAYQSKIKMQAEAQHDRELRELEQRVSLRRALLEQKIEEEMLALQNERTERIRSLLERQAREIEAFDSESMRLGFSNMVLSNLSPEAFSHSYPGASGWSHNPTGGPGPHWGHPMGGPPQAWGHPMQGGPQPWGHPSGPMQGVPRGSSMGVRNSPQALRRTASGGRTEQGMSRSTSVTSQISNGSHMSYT
Chain of Tyrosine-protein kinase Yes (Homo sapiens) (P07947 2-543 limits assumed): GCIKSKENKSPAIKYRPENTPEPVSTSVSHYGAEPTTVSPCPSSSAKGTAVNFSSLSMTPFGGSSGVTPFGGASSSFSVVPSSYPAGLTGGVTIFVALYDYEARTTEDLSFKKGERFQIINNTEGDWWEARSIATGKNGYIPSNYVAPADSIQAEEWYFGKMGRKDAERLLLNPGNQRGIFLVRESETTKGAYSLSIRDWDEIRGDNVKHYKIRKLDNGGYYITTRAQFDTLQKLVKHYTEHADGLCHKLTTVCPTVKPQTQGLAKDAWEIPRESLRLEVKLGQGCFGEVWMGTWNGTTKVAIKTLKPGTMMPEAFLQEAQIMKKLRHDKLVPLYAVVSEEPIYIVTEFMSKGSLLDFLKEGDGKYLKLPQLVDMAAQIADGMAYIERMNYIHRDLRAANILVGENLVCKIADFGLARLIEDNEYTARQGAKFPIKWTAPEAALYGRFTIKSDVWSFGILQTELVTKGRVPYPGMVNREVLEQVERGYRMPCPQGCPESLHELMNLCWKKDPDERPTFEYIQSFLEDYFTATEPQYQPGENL

Compound: Cc1ccc(-c2cnc([C@@]3(O)CC[C@H](C(=O)O)C(C)(C)C3)s2)cc1Nc1cccc(C(F)(F)F)n1 [MRL-SYKi-NC]
- residual activity [1]: 95.4%
- residual activity [2]: 98.8%
- residual activity [3]: 98.7%
- residual activity [4]: 100%
- IC50 (Mast cell): > 10 µM (not active)
- residual activity [5]: 94.2%
- residual activity [6]: 75.7%
- residual activity [7]: 100%
- inhibition [8]: 20.3%
- residual activity [9]: 93.1%
- residual activity [10]: 100%
- residual activity [11]: 100%
- residual activity [12]: 97.5%
- residual activity [13]: 100%
- residual activity [14]: 100%
- residual activity [15]: 89.5%
- residual activity [16]: 100%
- residual activity [17]: 76.7%
- residual activity [18]: 90.2%
- residual activity [19]: 100%
- inhibition [20]: 15.7%
- residual activity [21]: 92.1%
- residual activity [22]: 100%
- residual activity [23]: 72.5%
- residual activity [24]: 31.8%
- residual activity [25]: 100%
- residual activity [26]: 100%
- residual activity [27]: 100%
- residual activity [28]: 67.1%
- residual activity [29]: 95.2%
- residual activity [30]: 100%
- residual activity [31]: 100%
- residual activity [32]: 100%
- residual activity [33]: 100%
- residual activity [34]: 82.1%
- residual activity [35]: 100%
- residual activity [36]: 90.8%
- residual activity [37]: 100%
- residual activity [38]: 98.6%
- residual activity [39]: 91.7%
- residual activity [40]: 81.3%
- residual activity [41]: 98.7%
- residual activity [42]: 63.9%
- residual activity [43]: 100%

Compound: Cc1cc(Nc2nccc(C)n2)cc(-c2cnc([C@@]3(O)CC[C@H](C(=O)O)C(C)(C)C3)s2)c1 [MRL-SYKi]
- residual activity [1]: 95.4%
- residual activity [2]: 100%
- residual activity [3]: 100%
- residual activity [4]: 93.2%
- IC50 (Mast cell): 0.038 µM (active)
- residual activity [5]: 81.3%
- residual activity [6]: 92.9%
- residual activity [7]: 81.5%
- inhibition [8]: -2.68%
- residual activity [9]: 100%
- residual activity [10]: 96.9%
- residual activity [11]: 87.6%
- residual activity [12]: 59.1%
- residual activity [13]: 69.5%
- residual activity [14]: 64.9%
- residual activity [15]: 100%
- residual activity [16]: 100%
- residual activity [17]: 95.1%
- residual activity [18]: 99.9%
- residual activity [19]: 100%
- inhibition [20]: 3.34%
- residual activity [21]: 100%
- residual activity [22]: 46.2%
- residual activity [23]: 100%
- residual activity [24]: 100%
- residual activity [25]: 86.1%
- residual activity [26]: 92.3%
- residual activity [27]: 95.8%
- residual activity [28]: 100%
- residual activity [29]: 100%
- residual activity [30]: 66.5%
- residual activity [31]: 81.8%
- residual activity [32]: 74.7%
- residual activity [33]: 100%
- residual activity [34]: 71.7%
- residual activity [35]: 100%
- residual activity [36]: 100%
- residual activity [37]: 90.5%
- residual activity [38]: 100%
- residual activity [39]: 65.4%
- residual activity [40]: 100%
- residual activity [41]: 100%
- residual activity [42]: 100%
- residual activity [43]: 98.9%
